Laboratory results from US9822078B2, “Quinoline compounds” (Oxford University Innovation Limited, priority 2014, dated 2017).

Tests used:
[1] = molecular target: T1, Islet amyloid precursor polypeptide, IAPP (Homo sapiens, UniProt P10997); experiment: In vitro assembly assay (thioflavin T fluorescence, with or without air-water interface), IAPP; format: biochemical; settings: ratio of IC50 with air-water interface (+AWI) to IC50 without (−AWI), IAPP at 4 μM; for Ratio IAPP IC50 (μm) +AWI/−AWI elongation: elongation rate
T1 construct: Purified synthetic peptides corresponding to IAPP (Bachem, Weil am Rhein, Germany); purchased Bachem, Weil am Rhein, Germany; host or cells: synthetic peptide
T1 sequence (P10997 34-70 limits assumed): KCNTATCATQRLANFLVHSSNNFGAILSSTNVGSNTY
Method: (§1) The assay is based upon the altered fluorescent properties of the dye thioflavin T when it is intercalated into stacked beta-strand structures, which includes amyloid fibrils. The assay is carried out in multi-well plates in which the air-water interface (AWI) can be independently occluded at any time in the assay by the insertion in any well of a hydrophilic poly-methyl-methacrylate cylinder (Perspex). The cylinder consists of a rod of 6.6 mm in diameter and 6 mm in height with a hemispherical tip. This provides a close fit for the circular cross-section of the well, minimising residual air-water interface, and the hemispherical contour on the inserted end serves to ensure that no air bubbles are trapped on insertion.
(§2) The assay has a final volume of 100 μl and contains a buffered isotonic solution (Phosphate Buffered Saline pH 7.4), 32 μM Thioflavin T (ThT), an amyloidogenic precursor peptide (Islet amyloid precursor polypeptide, IAPP at 4 μM, or Abeta1-40 at 12 μM, final concentration) and added compounds at indicated concentrations (dissolved in dimethyl sulphoxide, DMSO) or DMSO alone. Purified synthetic peptides corresponding to IAPP (Bachem, Weil am Rhein, Germany) and Aβ1-40 (EZBiolab, Carmel, Ind., USA) were dissolved in DMSO, sonicated, and centrifuged for 1 hour at 15,000 g and 4° C. before use (to remove any pre-aggregated species).
(§3) The ThT fluorescence signal was measured at 1 minute intervals (excitation 450 nm, emission 480 nm) in a 96-well plate (black wall, clear bottom; Greiner Bio-One, Stonehouse, Gloucestershire, UK) without shaking at 37° C. on a Polarstar plate reader (BMG Labtech, Aylesbury, Buckinghamshire, UK).
(§4) Any compound or physical device (e.g., Perspex cylinder) used was introduced at the same time in test (containing IAPP) and control wells (buffer and ThT without IAPP). Control values (with or without compounds or physical device) were subtracted from test values. At least 3 independent assays, with every assay done in duplicate wells, were performed and analyzed with the 2-sample t test.
(§5) A more detailed description of the IAPP and Aβ thioflavin/cylinder assay is given in Jean et al (2012) Biophysical Journal 102 1154-11.
(§6) The kinetics parameters were calculated from the ThT data as follows; the elongation rate was calculated from the slope at the inflection point of the sigmoidal curve; the plateau height was calculated by averaging the highest curve values (minimum of five values) attained at the end of the experiment; and the lag phase was calculated from the intercept on the time axis of the line formed tangent to the inflection point. At least three independent assays were performed, with every assay performed in duplicate wells. Statistical analysis was performed with the two-sample t-test. Details of the method of calculation of lag phase, elongation rate and plateau height are described in Trigg et al (2013) Biochemical Journal 456 67-80.

Abeta1-40 = molecular target: T2, Abeta1-40 (Homo sapiens, UniProt P05067); experiment: In vitro assembly assay (thioflavin T fluorescence), screen against Amyloid-beta (Aβ) peptides; format: biochemical; settings: Abeta1-40 at 12 μM
T2 construct: Abeta1-40 at 12 μM, final concentration; purchased EZBiolab, Carmel, Ind., USA; host or cells: synthetic peptide
Method: as §1, §2, §3, §4, §5, §6

C. elegans = experiment: in vivo C. elegans model

T2 sequence (P05067 672-711 limits assumed): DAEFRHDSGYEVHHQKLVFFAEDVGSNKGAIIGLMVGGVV

SMILES | Ratio IAPP IC50 (μm) +AWI/−AWI elongation [1] | Ratio IAPP IC50 (μm) +AWI/−AWI Lag phase [1] | Active against Aβ (Abeta1-40) | activity in an in vivo C. elegans model (C. elegans)
Cc1cc(C)c2ccc(/C=C/c3ccccc3N)nc2c1O [Compound 131] | 4 | 8 | – | –
Cc1cc(C)c2ccc(/C=C/c3ccccc3O)nc2c1O [Compound 214] | 3 | 32 | ✓ (rate) | showed activity
Cc1cc(C)c2ccc(/C=C/c3ccc(O)c(O)c3)nc2c1O [Compound 221] | 16 | 32 | – | –
Cc1cc(C)c2ccc(/C=C/c3ccccc3[N+](=O)[O-])nc2c1O [Compound 222] | 3 | 11 | – | –
Cc1cc(C)c2ccc(/C=C/c3ccccc3)nc2c1O [Compound 225] | 4 | 3 | – | –
Cc1cc(C)c2ccc(/C=C/c3ccc(Br)o3)nc2c1O [Compound 226] | 3 | 1 | – | –
Cc1cc(C)c2ccc(/C=C/c3cccc(O)c3)nc2c1O [Compound 227] | 31 | 32 | ✓ (rate) | –
Cc1cc(C)c2ccc(/C=C/c3ccccc3C#N)nc2c1O [Compound 229] | 32 | 32 | ✓ (rate) | –
Cc1cc(C)c2ccc(/C=C/c3cccc([N+](=O)[O-])c3)nc2c1O [Compound 234] | 21 | 21 | – | –
Cc1cc(C)c2ccc(/C=C/c3cc(C(=O)O)ccc3O)nc2c1O [Compound 236] | 11 | 8 | ✓ | showed activity
COc1cc(/C=C/c2ccc3c(C)cc(C)c(O)c3n2)ccc1O [Compound 238] | 4 | 32 | – | –
Cc1cc(C)c2ccc(/C=C/c3ccc(OC(F)(F)F)cc3)nc2c1O [Compound 239] | 32 | 11 | – | –
Cc1cc(C)c2ccc(/C=C/c3ccc4c(c3)OCO4)nc2c1O [Compound 241] | 11 | 3 | No | showed activity
Cc1cc(C)c2ccc(/C=C/C3CCCCC3)nc2c1O [Compound 245] | 32 | 32 | ✓ | –
Cc1cc(C)c2ccc(/C=C/c3cccnc3)nc2c1O [Compound 249] | 12 | 32 | ✓ | showed activity
Cc1cc(C)c2ccc(/C=C/c3cccc(C#N)c3)nc2c1O [Compound 251] | 21 | 21 | ✓ | showed activity
Cc1cc(C)c2ccc(/C=C/c3ccc(Br)cc3)nc2c1O [Compound 252] | 3 | 1 | – | –
Cc1cc(C)c2ccc(/C=C/c3cccnc3Cl)nc2c1O [Compound 311] | 1 | 4 | – | –
COc1ccc(/C=C/c2ccc3c(C)cc(C)c(O)c3n2)cn1 [Compound 312] | 1 | 2 | – | –
Cc1cc(C)c2ccc(/C=C/c3cccnc3N)nc2c1O [Compound 321] | >1 | 3 | – | –
Cc1ccc(/C=C/c2ccc3c(C)cc(C)c(O)c3n2)cn1 [Compound 322] | 1 | 4 | – | –
Cc1cc(C)c2ccc(/C=C/c3ccc(N4CCOCC4)nc3)nc2c1O [Compound 323] | 2.5 | 11 | – | –
Cc1cc(C)c2ccc(/C=C/c3ccc(N4CCNCC4)nc3)nc2c1O [Compound 324] | 4 | 21 | – | –
Cc1cc(C)c2ccc(/C=C/c3cccnc3N3CCNCC3)nc2c1O [Compound 325] | 5 | 1 | – | –
Cc1cc(C)c2ccc(/C=C/c3cccnc3C)nc2c1O [Compound 326] | 1 | 1 | – | –
